Laboratory results: patent publication US9371305B2, “Deuterated benzopyran compounds and application thereof” (Guangzhou Institutes of Biomedicine And Health, Chinese …, priority 2012, dated 2016)
Where two headings read alike, the source gives them in different places.

Columns and labels:
[1] = test system: generation of PGE2 in the whole blood; experiment: whole blood assay, lipopolysaccharide-induced yield of PGE2 in heparin blood (ELISA); type: cell-based, human; settings: for IC50: Homo sapiens, read-out: inhibition IC50 onto generation of PGE2 in the whole blood test
Experimental: (§1) Deuterated benzopyran compounds of different concentrations were uniformly mixed with ovine COX-1 and human recombinant COX-2 for incubation for 15 min, respectively, and then the system was added with Heme and ADHP for incubation for another 2 min and finally added with substrate arachidonic acid. The light emission intensity of the reaction product at 595 nm was immediately detected by a microplate reader under exciting light at 530 nm. […] In the whole blood assay, venous blood of healthy donors was collected with a non-anticoagulation tube and a heparin tube, deuterated benzopyran compounds of different concentrations (1×10^−8 to 1×10^−4) were mixed with the blood in the non-anticoagulation tube, the supernatant was collected after the blood was coagulated and then measured by ELISA in terms of the yield of TXB2; and deuterated benzopyran compounds of different concentrations (1×10^−8 to 1×10^−4) were mixed with the blood in the heparin tube, the mixture was added with lipopolysaccharide until the final concentration was 100 μg/mL, mixed uniformly and then kept stand overnight at 37° C., the supernatant was collected by centrifugation and then measured by ELISA in terms of the yield of PGE2.

ovine COX-1 = target: T1, ovine COX-1 (Ovis aries, UniProt P05979); experiment: COX-1 enzyme inhibition (ADHP fluorescence); type: biochemical
T1 sequence (P05979 25-600): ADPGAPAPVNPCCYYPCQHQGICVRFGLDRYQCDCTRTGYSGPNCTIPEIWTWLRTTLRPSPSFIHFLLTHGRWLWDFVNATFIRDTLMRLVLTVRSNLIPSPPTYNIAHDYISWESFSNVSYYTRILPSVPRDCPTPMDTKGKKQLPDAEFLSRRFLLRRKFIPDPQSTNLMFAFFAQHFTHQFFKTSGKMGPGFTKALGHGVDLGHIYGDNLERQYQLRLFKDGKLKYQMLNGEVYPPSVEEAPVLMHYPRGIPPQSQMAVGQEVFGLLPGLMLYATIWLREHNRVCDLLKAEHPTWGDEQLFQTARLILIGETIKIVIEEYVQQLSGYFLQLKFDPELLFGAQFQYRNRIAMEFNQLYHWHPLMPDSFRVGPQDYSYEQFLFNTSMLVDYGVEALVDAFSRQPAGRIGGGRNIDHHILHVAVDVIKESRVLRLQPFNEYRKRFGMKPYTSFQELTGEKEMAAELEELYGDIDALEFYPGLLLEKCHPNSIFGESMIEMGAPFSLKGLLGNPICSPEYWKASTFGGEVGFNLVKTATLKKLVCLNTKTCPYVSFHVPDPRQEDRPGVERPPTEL
Experimental: as §1, with “PGE2. […]” for “PGE2.”

[2] = Test on pharmacokinetics and bioavailability of rats; type: in vivo, SD rats; settings: for Vd / BA / AUC / Cmax / Tmax / half-life / t½: male SD rats; for BA: oral, calculated according AUC data; for AUC / Cmax / Tmax / half-life / t½: oral administration; for half-life: read-out: t½ (converted)
Experimental: The blood samples employ acetonitrile to precipitate protein, 16000 rpm*30 min, and the supernatant is used for LC/MS analysis. Data is performed with parameter fitting by DAS2.0, and the bioavailability of oral administration of compounds is calculated according AUC data.

[3] = test system: generation of TXB2 in the whole blood; experiment: whole blood assay, yield of TXB2 in coagulated blood (ELISA); type: cell-based; settings: Homo sapiens, read-out: inhibition IC50 onto generation of TXB2 in the whole blood test
Experimental: as §1, with “PGE2. […]” for “PGE2.”

human recombinant COX-2 = target: T2, human recombinant COX-2 (Homo sapiens, UniProt P35354); experiment: COX-2 enzyme inhibition (ADHP fluorescence); type: biochemical; settings: for IC50: human recombinant COX-2, 15 min incubation
T2 sequence (P35354 18-604): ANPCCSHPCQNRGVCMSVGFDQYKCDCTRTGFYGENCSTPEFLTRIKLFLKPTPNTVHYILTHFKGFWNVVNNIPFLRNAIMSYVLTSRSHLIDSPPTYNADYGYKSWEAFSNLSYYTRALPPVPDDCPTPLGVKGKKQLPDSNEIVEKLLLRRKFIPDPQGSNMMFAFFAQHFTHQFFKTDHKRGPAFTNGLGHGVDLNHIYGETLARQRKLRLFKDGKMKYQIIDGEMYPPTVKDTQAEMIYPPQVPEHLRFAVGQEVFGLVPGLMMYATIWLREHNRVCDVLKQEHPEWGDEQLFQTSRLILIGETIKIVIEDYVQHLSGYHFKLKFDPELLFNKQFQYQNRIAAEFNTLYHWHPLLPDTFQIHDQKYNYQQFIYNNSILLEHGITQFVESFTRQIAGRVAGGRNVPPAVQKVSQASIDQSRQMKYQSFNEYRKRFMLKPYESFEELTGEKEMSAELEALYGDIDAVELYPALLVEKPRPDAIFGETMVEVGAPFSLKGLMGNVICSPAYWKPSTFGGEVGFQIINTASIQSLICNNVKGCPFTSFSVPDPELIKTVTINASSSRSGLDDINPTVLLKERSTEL
Experimental: as §1

[4] = ovine COX-1, 15 min incubation, read-out: Inhibition IC50 COX-1
[5] = rat, plasma, single dose 25 mg/kg
[6] = rat, plasma, single dose 25 mg/kg, read-out: Cmax
[7] = rat, plasma, single dose 25 mg/kg, read-out: Tmax
[8] = blood of healthy donors, heparin tube, lipopolysaccharide 100 μg/mL, overnight at 37° C.
[9] = blood of healthy donors, non-anticoagulation tube
[10] = rat, plasma, single dose 2.5 mg/kg
[11] = rat, plasma, single dose 10 mg/kg
[12] = rat, plasma, single dose 2.5 mg/kg, read-out: Cmax
[13] = rat, plasma, single dose 2.5 mg/kg, read-out: Tmax

Row | Vd ([2]; single dose 10 mg/kg) [L/kg] | Cmax ([2]; single dose 10 mg/kg) [ng/mL] | Tmax ([2]; single dose 10 mg/kg) [h] | t½ ([2]; single dose 10 mg/kg) [h] | BA ([2]; single dose 10 mg/kg) [%] | AUC [2, 11] [ng·h/mL] | SMILES | IC50 [1] [µM] | IC50 (ovine COX-1; [4]) [µM] | IC50 [3] [µM] | IC50 [1, 8] [µM] | IC50 [3, 9] [µM] | BA ([2]; single dose 2.5 mg/kg) [%] | AUC [2, 10] [ng·h/mL] | IC50 (human recombinant COX-2) [µM] | Vd ([2]; single dose 2.5 mg/kg) [L/kg] | Cmax [2, 12] [ng/mL] | Tmax [2, 13] [h] | half-life [2, 10] [h] | other results
1 | – | – | – | – | – | – | [2H]C([2H])([2H])c1ccc2c(c1)C=C(C(=O)O)C(C(F)(F)F)O2 (stereo not drawn) [GIBH-1004, 6-(methyl-D3)-2-(trifluoromethyl)-2H-chromence-3-carboxylic acid] | 67.5 | > 100 | > 100 | – | – | – | – | – | – | – | – | – | Vd ([2]; single dose 25 mg/kg): 0.58 L/kg; BA ([2]; single dose 25 mg/kg): 46.1%; AUC [2, 5]: 181000 ng·h/mL; Cmax [2, 6]: 34200 ng/mL; Tmax [2, 7]: 0.563 h; half-life [2, 5]: 2.88 h
2 | – | – | – | – | – | – | [2H]C([2H])([2H])C([2H])([2H])c1cc(OC(F)(F)F)cc2c1OC(C(F)(F)F)C(C(=O)O)=C2 (stereo not drawn) [GIBH-1006, 8-(ethyl-D5)-6-(trifluoromethoxy)-2-(trifluoromethyl)-2H-chromene-3-carboxylic acid] | – | > 100 | – | 79.5 | 20.5 | – | – | – | – | – | – | – | Vd ([2]; single dose 25 mg/kg): 0.68 L/kg; BA ([2]; single dose 25 mg/kg): 78.6%; AUC value compared among the compounds (in words) ([2]; rat PK, doses differ between compounds): highest; AUC [2, 5]: 511000 ng·h/mL; Cmax [2, 6]: 29500 ng/mL; Tmax [2, 7]: 1.62 h; half-life [2, 5]: 9.54 h
3 | – | – | – | – | – | – | [2H]C([2H])([2H])c1cc(Cl)cc2c1OC(C(F)(F)F)C(C(=O)O)=C2 (stereo not drawn) [GIBH-1012, 6-chloro-8-(methyl-D3)-2-(trifluoromethyl)-2H-chromene-3-carboxylic acid] | > 100 | > 100 | > 100 | – | – | 110.7 | 38900 | – | – | – | – | – | Cmax ([2]; single dose 2.5 mg/kg): 8945 ng/mL; Tmax ([2]; single dose 2.5 mg/kg): 0.5 h; t½ ([2]; single dose 2.5 mg/kg): 3.37 h
4 | – | – | – | – | – | – | [2H]C([2H])([2H])c1c(Br)c2c(c(C([2H])([2H])[2H])c1Br)C=C(C(=O)O)C(C(F)(F)F)O2 (stereo not drawn) [GIBH-1051, 6,8-dibromo-5,7-(dimethyl-D6)-2-(trifluoromethyl)-2H-chromene-3-carboxylic acid] | > 100 | 5.45 | 70.6 | – | – | 63.7 | 13000 | 0.0841 | 1.004 | 4480 | 0.688 | 1.76 | –
5 | – | – | – | – | – | – | [2H]C([2H])([2H])c1cc(Cl)c2c(c1)C=C(C(=O)O)C(C(F)(F)F)O2 (stereo not drawn) [GIBH-1018, 8-chloro-6-(methyl-D3)-2-(trifluoromethyl)-2H-chromene-3-carboxylic acid] | 78.9 | > 100 | > 100 | – | – | 90.6 | 28300 | – | 0.31 | 11800 | 0.271 | 2.43 | –
6 | – | – | – | – | – | – | [2H]C([2H])([2H])c1cc2c(c(C([2H])([2H])[2H])c1)OC(C(F)(F)F)C(C(=O)O)=C2 (stereo not drawn) [GIBH-1016, 6,8-(dimethyl-D6)-2-(trifluoromethyl)-2H-chromene-3-carboxylic acid] | > 100 | – | > 100 | – | – | 65.1 | 4330 | – | 0.94 | 4400 | 0.187 | 1.04 | IC50 (ovine COX-1): > 100 µM
7 | 0.26 | 20900 | 1.167 | 2.1 | 92.8 | 118000 | [2H]C([2H])([2H])c1cc2c(c(C([2H])([2H])[2H])c1Cl)C=C(C(=O)O)C(C(F)(F)F)O2 (stereo not drawn) [GIBH-1008, 6-chloro-5,7-(dimethyl-D6)-2-(trifluoromethyl)-2H-chromene-3-carboxylic acid] | – | > 100 | – | 78.5 | 65.1 | – | – | – | – | – | – | – | IC50 (ovine COX-1; read-out: IC50 value of COX-1): > 100 µM
8 | 0.57 | 21399 | 0.5 | 3.35 | 111.8 | 84800 | [2H]C([2H])([2H])c1cc2c(c(C([2H])([2H])[2H])c1Br)C=C(C(=O)O)C(C(F)(F)F)O2 (stereo not drawn) [GIBH-1010, 6-bromo-5,7-(dimethyl-D6)-2-(trifluoromethyl)-2H-chromene-3-carboxylic acid] | – | > 100 | – | > 100 | 38.9 | – | – | 0.0671 | – | – | – | – | –

Row | SMILES | Vd ([2]; single dose 10 mg/kg) [L/kg] | Cmax ([2]; single dose 10 mg/kg) [ng/mL] | Tmax ([2]; single dose 10 mg/kg) [h] | t½ ([2]; single dose 10 mg/kg) [h] | BA ([2]; single dose 10 mg/kg) [%] | AUC [2, 11] [ng·h/mL] | IC50 [1] [µM] | IC50 (ovine COX-1; [4]) [µM] | IC50 [3] [µM] | IC50 [1, 8] [µM] | IC50 [3, 9] [µM] | BA ([2]; single dose 2.5 mg/kg) [%] | AUC [2, 10] [ng·h/mL] | IC50 (human recombinant COX-2) [µM] | Vd ([2]; single dose 2.5 mg/kg) [L/kg] | Cmax [2, 12] [ng/mL] | Tmax [2, 13] [h] | half-life [2, 10] [h] | other results
9 | [2H]C([2H])([2H])c1cc(Br)cc2c1OC(C(F)(F)F)C(C(=O)O)=C2 (stereo not drawn) [GIBH-1014, 6-bromo-8-(methyl-D3)-2-(trifluoromethyl)-2H-chromene-3-carboxylic acid] | 0.53 | 35300 | 0.417 | 5.2 | 107.4 | 143000 | 45.2 | 31.8 | > 100 | – | – | – | – | 0.0368 | – | – | – | – | selectivity to the inhibition of COX-2 enzyme of blood cells ([1]; human whole blood COX enzyme activity test): better selectivity; ratio of the selectivity to COX-2 to the selectivity to COX-1 (human recombinant COX-2; from enzyme IC50 values COX-1/COX-2): 862
